Where two headings read alike, the source gives them in different places.
Experiments:
Test in all cases: CellTiter-Glo, NCI60 panel
Type in all cases: cell-based
ACHN = details: Renal; for GI50: Homo sapiens
From the text: (§1) Identification of tumor types that are the most sensitive to the KSP inhibitors of the present invention can be accomplished using an unbiased approach that uses several cell-based assays. The assays chosen were as follows: • CellTiter-Glo®. This is an assay designed to measure ATP concentration in a cell culture, and can be correlated to cell number. Briefly CellTiter-Glo® (Promega Corporation) is a homogeneous method using the single CellTiter-Glo® reagent to detect ATP wherein ATP in the assay drives the activity of a thermostable luciferase to create a luminescent signal which can then be measured and correlated with the number of viable cells. Briefly, for adherent cells, 1,000 to 5,000 cells/well were plated in 96-well plates (100 μl/well) and let to adhere for 24 hours before being treated with drug. For non-adherent cells, 1,000 to 10,000 cells/well were plated in 96-well plates (100 μl/well) and immediately treated with drug. Drug dilutions were prepared in DMSO at 1000 times the final concentration. These dilutions were then diluted 1/100 in growth media before being added to the cells (11 μl/well) to achieve the desired final concentration. After 48 h in a 37° C. tissue culture incubator, the plates were processed for the CellTiter-Glo®assay according to the manufacturer's instructions. Protocol for a 72 hour cell proliferation assay: The 72 hour assay was performed the same way as the 48 hour assay except for the following modifications: For adherent cells, 500 to 5,000 cells/well were plated in 96-well plates (90 μl/well cell growth media) and left to adhere for 24 hours before being treated with drug. For non-adherent cells, 1,000 to 10,000 cells/well were plated in 96-well plates (90 μl/well cell growth media) and immediately treated with drug. Data values presented represent the concentration of test compound required for a 50% reduction in growth. • LDH release. The Cytotoxicity Detection KitPLUS (LDH) assay (Roche Diagnostics, Manheim, Germany) measures the amount of LDH released in the media by dying cells; LDH catalyzes the conversion of lactate into pyruvate. The enzymatic reaction is coupled to a chemical reaction that uses a tetrazolium salt to form a formazan that is red and can be detected by its absorbance at 490 nm. This assay measures the amount of cell death after drug treatment. Cells were plated at 10,000 cells/well in 96-well plates (100 μl/well). Adherent cells were let to adhere for 24 hours before being treated with drug, whereas non-adherent cells were immediately treated with drug. Drug dilutions were prepared in DMSO at 1000 times the final concentration. These dilutions were then diluted 1/100 in growth media before being added to the cells (11 μl/well) to achieve the desired final concentration. After 48 h in a 37° C. tissue culture incubator, the plates were processed for the Cytotoxicity Detection KitPLUS (LDH) assay according to the manufacturer's instructions. The media only values were subtracted from all the data points before analysis. Data values presented correspond to the compound concentration wherein LDH output is at half maximal level. • Caspase-Glo® 3/7. The Caspase-Glo® 3/7 Assay (Promega Corporation) is a homogeneous luminescent assay that measures caspase-3/7 activities. The assay provides a proluminescent caspase-3/7 DEVD-aminoluciferin substrate and a thermostable luciferase in a reagent optimized for caspase-3/7 activity, luciferase activity and cell lysis. Adding the single Caspase-Glo® 3/7 Reagent results in cell lysis, followed by caspase cleavage of the substrate. This liberates free aminoluciferin, which is consumed by the luciferase, generating a luminescent signal. The signal is proportional to caspase-3/7 activity. Data values presented correspond to the compound concentration wherein caspase 3/7 activity is at half maximal level. […]

BT-474 = details: Breast; for GI50: Homo sapiens
From the text: as §1

CCRF-CEM = details: Leukemia; for GI50: Homo sapiens
From the text: as §1

DU-145 = details: Prostate; for GI50: Homo sapiens
From the text: as §1

HCC-2998 = details: Colon; for GI50: Homo sapiens
From the text: as §1

HS 578T = details: Breast; for GI50: Homo sapiens
From the text: as §1

IGROV1 = details: for GI50: Homo sapiens, IGROV-1, Ovarian
From the text: as §1

LOX IMVI = details: Melanoma; for GI50: Homo sapiens
From the text: as §1

M14 = details: Melanoma; for GI50: Homo sapiens
From the text: as §1

MDA-MB-231 = details: Breast; for GI50: Homo sapiens
From the text: as §1

NCI-H322M = details: NSCL; for GI50: Homo sapiens
From the text: as §1

NCI/ADR-RES = details: Ovarian; for GI50: Homo sapiens
From the text: as §1

OVCAR-3 = details: Ovarian; for GI50: Homo sapiens
From the text: as §1

TK-10 = details: Renal; for GI50: Homo sapiens
From the text: as §1

U251 = details: for GI50: Homo sapiens, U-251, CNS
From the text: as §1

[1] = GI50 in nM, read-out: Log(GI50) (converted)

**Q.** Which results are given for `CC(C)(C)[C@H](c1nc(-c2cc(F)ccc2F)cn1Cc1ccccc1)N(CC[C@H](N)CF)C(=O)CO` [Compound IIa]?
**A.** GI50 (ACHN; [1]): 10 nM; GI50 (ACHN; read-out: GI50): 10 nM; Differential vs mean Log(GI50) (ACHN): −0.669; Differential vs mean Log(GI50) (BT-474): −0.669; GI50 (BT-474; [1]): 10 nM; GI50 (BT-474; read-out: GI50): 10 nM; GI50 (CCRF-CEM; [1]): 0.215 nM; GI50 (CCRF-CEM; read-out: GI50): 0.215 nM; Differential vs mean Log(GI50) (CCRF-CEM): 0.999; GI50 (DU-145; [1]): 0.435 nM; GI50 (DU-145; read-out: GI50): 0.435 nM; Differential vs mean Log(GI50) (DU-145): 0.693; Differential vs mean Log(GI50) (HCC-2998): 0.547; GI50 (HCC-2998; [1]): 0.608 nM; GI50 (HCC-2998; read-out: GI50): 0.608 nM; Differential vs mean Log(GI50) (HS 578T): 0.989; GI50 (HS 578T; [1]): 0.22 nM; GI50 (HS 578T; read-out: GI50): 0.22 nM; GI50 (IGROV1; [1]): 10 nM; GI50 (IGROV1; read-out: GI50): 10 nM; Differential vs mean Log(GI50) (IGROV1; Ovarian): −0.669; GI50 (LOX IMVI; [1]): 10 nM; GI50 (LOX IMVI; read-out: GI50): 10 nM; Differential vs mean Log(GI50) (LOX IMVI): −0.669; GI50 (M14; [1]): 0.209 nM; GI50 (M14; read-out: GI50): 0.209 nM; Differential vs mean Log(GI50) (M14): 1.011; Differential vs mean Log(GI50) (MDA-MB-231): 0.809; GI50 (MDA-MB-231; [1]): 0.333 nM; GI50 (MDA-MB-231; read-out: GI50): 0.333 nM; GI50 (NCI-H322M; [1]): 10 nM; GI50 (NCI-H322M; read-out: GI50): 10 nM; Differential vs mean Log(GI50) (NCI-H322M): −0.669; GI50 (NCI/ADR-RES; [1]): 4.18 nM; GI50 (NCI/ADR-RES; read-out: GI50): 4.18 nM; Differential vs mean Log(GI50) (NCI/ADR-RES): −0.290; GI50 (OVCAR-3; [1]): 10 nM; GI50 (OVCAR-3; read-out: GI50): 10 nM; Differential vs mean Log(GI50) (OVCAR-3): −0.669; GI50 (TK-10; [1]): 10 nM; GI50 (TK-10; read-out: GI50): 10 nM; Differential vs mean Log(GI50) (TK-10): −0.669; Differential vs mean Log(GI50) (U251; CNS): 0.953; GI50 (U251; [1]): 0.239 nM; GI50 (U251; read-out: GI50): 0.239 nM

From patent US8252832B2, “Kinesin inhibitors as cancer therapeutics” (Novartis AG, priority 2007, dated 2012)
